These results are taken from paper PMC4528135, “Kinetic Investigations of the Role of Factor Inhibiting Hypoxia-inducible Factor (FIH) as an Oxygen Sensor” (The Journal of Biological Chemistry, 2015).

Read-outs that look alike come from different tables or passages of the source.

Holding throughout (type): biochemical
For experiment [1], the target named is T1, FIH (Homo sapiens, UniProt Q9NWT6).
T1 construct: Full-length recombinant FIH, two- and three-consensus ankyrin repeats (2CA and 3CA) were produced as described; His6 (cleaved yes); made in house; host or cells: Escherichia coli BL21(DE3)
The experiment in a line: O2 dependence of FIH-catalyzed hydroxylation (hypoxia workstation). The settings on record: FIH with the named substrate; 5 μM FIH, 500 μM peptide, 50 μM Fe(II), 1 mM 2OG, 1 mM L-ascorbate, 50 mM HEPES pH 7.5, 37 °C, hypoxia workstation at different pO2; triplicate assays. On the procedure:
(§1) The O2 dependence of FIH-catalyzed reactions was determined by conducting enzymatic assays in an “In vivo 500 Hypoxia Workstation” (Ruskinn) using buffers pre-equilibrated under different pO2 values for 24 h. The O2 dependence of PHD2-catalyzed reactions was determined by conducting enzymatic assays in sealed glass vials with variable N2/O2 contents ([42]). Reactions were stopped by spotting samples onto a matrix-assisted laser desorption/ionization-time of flight mass spectrometry (MALDI-TOF-MS) target plate and immediately mixing with α-cyano-4-hydroxycinnamic acid matrix. Hydroxylation levels were assessed by MALDI-TOF-MS as described ([46]).
FIGURE 4. O2 dependence of FIH- and PHD2-catalyzed hydroxylation of HIF-1/2α. A, O2 dependence of PHD2-catalyzed hydroxylation of HIF-1/2α CODD/NODD 19-mer peptides. 4 μM PHD2, peptide (varied), 50 μM Fe(II), 2OG (varied), 4 mM L-ascorbate in HEPES 50 mM (pH 7.5) were incubated at 37 °C. The different O2 levels were maintained using mass flow controllers ([42]), and the hydroxylation levels were analyzed by MALDI-TOF-MS. B, O2 dependence of FIH-catalyzed hydroxylation of CAD HIF-1/2α 35-mer peptides. Conditions were as follows. 5 μM FIH, 500 μM peptide, 50 μM Fe(II), 1 mM 2OG, 1 mM L-ascorbate in HEPES 50 mM (pH 7.5) were incubated at 37 °C in a hypoxia work station under different pO2. […] Error bars, S.D. of triplicate assays.
FIGURE 8. Time course and O2 dependence of the FIH-catalyzed hydroxylation of HIF-α CAD and ARD substrates. Conditions were as follows. 5 μM FIH, 500 μM peptide, 50 μM Fe(II), 1 mM 2OG, 1 mM L-ascorbate in HEPES 50 mM (pH 7.5) were incubated at 37 °C. For O2 dependence studies, reactions were carried out in a hypoxic work station under different pO2 (assays at >20% O2 conducted using mass flow controllers ([42])). The different hydroxylation levels were analyzed by MALDI-TOF-MS or by LC-MS (for 2CA and 3CA). […] Error bars, S.D. of triplicate assays. A, time course of consensus ARD substrate hydroxylation (tankyrase-1 (tnkrs-1 20-mer and 35-mer) and one-consensus ankyrin repeat 20-mer (1CA)). B, time course of ARD peptide hydroxylation (one-consensus ankyrin repeat 20-mer (1CA), two ankyrin repeats (2CA), and three ankyrin repeats (3CA)). C, O2 dependence of HIF-1/2α CAD, 1CA, and tnkrs-1_35-mer hydroxylation. D, O2 dependence of 1CA, 2CA, and 3CA hydroxylation.

For experiment [2], the target named is T1, FIH. The experiment can be described thus: Rapid quench-flow, FIH pre-steady-state product and succinate formation. The settings on record: for Rapid quench-flow kproduct / Rapid quench-flow ksuccinate: 0.5 mM apo-FIH, 0.4 mM Fe(II), 5 mM 2OG, 1 mM substrate, 50 mM HEPES pH 7.5, O2-saturated buffer 1:1, 5 °C, quenched with 1% CF3CO2H; for Rapid quench-flow kproduct: hydroxylation by MALDI-TOF-MS, 1–3 separate experiments; for Rapid quench-flow ksuccinate: succinate by LC-MS. As for the experimental part: Rapid quench-flow experiments were performed using the same conditions and preparation of the assay mixture as used in stopped-flow experiments. Rapid quench-flow equipment (TgK Scientific Ltd.) in an anaerobic glove box was used for the experiments. Samples were quenched with 1% CF3CO2H and analyzed using MALDI-TOF-MS (peptide hydroxylation) as described above or liquid chromatography-mass spectrometry (LC-MS, for succinate production). For LC-MS, chromatographic separation was performed at 50 °C using a Waters ACQUITY BEH Amide 1.7-μm, 2.1 × 100-mm column on a Waters ACQUITY^TM ultraperformance liquid chromatography system (Waters Corp., Milford, MA). The following eluents were used: mobile phase A: 10% H2O, 90% acetonitrile (v/v), 10 mM ammonium formate; mobile phase B: 50% H2O, 50% acetonitrile (v/v), 10 mM ammonium formate. The elution gradient was 0–7.0 min linear from 10 to 30% B, and 7.0–9.0 min at 10% B for re-equilibration of the column. A constant flow rate of 0.4 ml/min was used. Analytes were detected in negative ionization mode using single reaction monitoring on a Quattro triple quadrupole mass spectrometer (Waters) with a cone voltage of 15 V and a capillary voltage of 3.0 kV. The desolvation temperature was set to 250 °C, and the source temperature was set to 120 °C.
FIGURE 9. Rapid quench-flow experiments showing FIH-catalyzed hydroxylation of HIF-1/2α CAD and ARD substrates. Reaction mixtures containing anaerobic 0.5 mM apo-FIH, 0.4 mM Fe(II), 5 mM 2OG, 1 mM peptide in HEPES 50 mM (pH 7.5) were rapidly mixed with O2-saturated buffer at 5 °C in a 1:1 ratio and then quenched with 1% CF3CO2H at defined time points. The data were fitted with the function, y = a·(1 − exp(−bx)) + c. Hydroxylation levels were assessed by MALDI-TOF-MS. A, hydroxylation of HIF-1α CAD, 1CA, and tankyrase-1 peptide substrates (19- and 20-mers); B, hydroxylation of HIF-1α, HIF-2α, and tankyrase-1 35-mer peptide substrates; C, hydroxylation of 1CA, 2CA, and 3CA. Data plotted were cumulatively acquired over the course of 1–3 separate experiments.

For experiment [3], the target named is T1, FIH. The experiment in a line: Stopped-flow UV-visible spectroscopy, FIH·Fe(II)·2OG·substrate + O2. Conditions: anaerobic 0.5 mM FIH, 1 mM substrate, 5 mM 2OG, 0.4 mM Fe(II), 50 mM HEPES pH 7.5, mixed 1:1 with O2-saturated buffer at 5 °C; double exponential fit. As for the experimental part:
Stopped-flow UV-visible spectroscopy experiments were performed as described previously ([32], [42]). Anerobically prepared assay mixtures containing 0.5 mM apo-FIH, 1 mM substrate, 5 mM 2OG, 0.4 mM Fe(II) or 0.8 mM apo-PHD2, 1 mM substrate, 5 mM 2OG, 0.5 mM Fe(II) were rapidly mixed with O2-free/O2-saturated buffer. The reaction was observed over 1000 s using a photodiode array detector, and kinetic traces were analyzed using Origin version 8.51 software. Data were fitted with a double exponential function (y = A1 × exp(−kriset) + A2 × exp(−kfallt) + y0). The A1, A2, and y0 parameters were restricted with upper limits to match the observed amplitude/offset changes.
Kinetic traces were fitted using a double exponential function; the fitting parameters of intermediate formation and decay are summarized in Table 3.
FIGURE 10. Stopped-flow UV-visible absorbance changes upon FIH-catalyzed hydroxylation of HIF-1/2α CAD and ARD substrates. Reaction mixtures containing anaerobic 0.5 mM apo-FIH, 0.4 mM Fe(II), 5 mM 2OG, and 1 mM peptide in HEPES 50 mM (pH 7.5) were rapidly mixed with O2-saturated buffer at 5 °C in 1:1 ratio and analyzed using a photodiode array detector. The data were fitted with a double exponential function. A, decay at 500 nm (representing enzyme·substrate complex depletion) observed upon FIH-catalyzed hydroxylation of ARD substrates compared with HIF-1/2α CAD. B, formation and degradation of 310 nm species observed upon FIH-catalyzed HIF-1/2α CAD and ARD hydroxylation. C, decay at 500 nm observed upon FIH-catalyzed hydroxylation of 1CA, 2CA, and 3CA substrates.

Experiment [4] concerns the target T1, FIH. The experiment in a line: Steady-state kinetics of FIH-catalyzed peptide/protein hydroxylation (MALDI-TOF-MS or LC-MS). The settings on record: 50 μM Fe(II), 1 mM L-ascorbate, 50 mM HEPES pH 7.5, 37 °C; for Km: 0.1–5 μM FIH, MALDI-TOF-MS (LC-MS for 2CA, 3CA), triplicate assays. As for the experimental part:
Enzymatic assays were conducted as described ([46], [47]). Unless otherwise stated, the assay mixture typically contained 5 μM FIH, 500 μM substrate, 500 μM 2OG, 1 mM L-ascorbate, and 50 μM Fe(NH4)2(SO4)2 or 4 μM PHD2, 100 μM substrate, 300 μM 2OG, 4 mM L-ascorbate, and 50 μM Fe(NH4)2(SO4)2. For HIF-1α CODD19-mer, the background levels of methionine oxidation resulting from assay conditions were subtracted based on non-enzymatic controls ([48]).
as §1
Samples obtained from FIH kinetic assays with 2CA and 3CA were diluted to a substrate concentration of 5 μM and then analyzed using a Waters® LCT Classic mass spectrometer by electrospray ionization in positive ion mode. An Agilent HP1100 LC system was used, and samples were run through a Phenomenex® Aeris Widepore 3.6-μm XB-C8 150 × 2.1-mm column at 0.5 ml/min in a gradient of phase A (95% H2O, 5% CH3CN, 0.01% formic acid) to phase B (95% CH3CN, 5% H2O, 0.01% formic acid). The LC/MS used the following method: 0–1.5 min, 100% A and then 1.5–12 min linear gradient from 0 to 100% B, 12–14 min 100% B, and 15.0–19.0 min 100% A for re-equilibration of the column. Data were collected and analyzed using MassLynx version 4.0.

The target of another experiment is T2, PHD2 (Homo sapiens, UniProt Q9GZT9).
T2 construct: The catalytic domain of PHD2 (residues 181–426) was purified as described; made in house
The experiment in a line: Stopped-flow UV-visible spectroscopy, PHD2·Fe(II)·2OG·substrate + O2. The settings on record: anaerobic 0.8 mM PHD2, 1 mM peptide, 5 mM 2OG, 50 mM HEPES pH 7.5, mixed 1:1 with O2-saturated buffer at 5 °C; double exponential fit; traces average of triplicate. As for the experimental part:
Stopped-flow UV-visible spectroscopy experiments were performed as described previously ([32], [42]). […] The reaction was observed over 1000 s using a photodiode array detector, and kinetic traces were analyzed using Origin version 8.51 software. Data were fitted with a double exponential function (y = A1 × exp(−kriset) + A2 × exp(−kfallt) + y0). The A1, A2, and y0 parameters were restricted with upper limits to match the observed amplitude/offset changes.
Previously reported pre-steady-state kinetic studies on PHD2 focused on its reaction with CODD HIF-1α 19-mer peptide ([38], [42]); there is no reported information on the rates of PHD2 reaction with O2 in the presence of NODD HIF-1α or HIF-2α substrates. To ascertain whether a slow reaction with O2 under pre-steady-state conditions is common to PHD2-catalyzed hydroxylation of both CODD and NODD, we investigated the reaction of PHD2 with NODD substrates in comparison with CODD for both HIF-1α and HIF-2α. Pre-steady-state reactions of PHD2 were initiated by rapid mixing of anaerobic PHD2·Fe(II)·2OG·HIF-α complexes with O2-saturated buffer at 5 °C. Reactions were initially observed using a photodiode array detector, and difference spectra (in comparison with the reaction with O2-free buffer) were subsequently analyzed.
FIGURE 5. Pre-steady-state kinetics of PHD2-catalyzed HIF-1/2α hydroxylation. […] B, stopped-flow kinetic traces at 520 nm showing absorbance changes in control experiments: Fe(II) only, mix of Fe(II) and 2OG, reaction of PHD2·Fe(II)·2OG complex with O2 in the absence of CODD; reaction of PHD2·Fe(II)·N-oxalylglycine (NOG)·CODD complex with O2. N-Oxalylglycine is an inhibitor of 2OG oxygenases. […] The kinetic traces represent the average of triplicate assays. E, HIF-1/2α peptide hydroxylation, as determined by MALDI-TOF-MS. Reactions were quenched with 1% CF3CO2H at defined time points.

T1 sequence (Q9NWT6 whole entry): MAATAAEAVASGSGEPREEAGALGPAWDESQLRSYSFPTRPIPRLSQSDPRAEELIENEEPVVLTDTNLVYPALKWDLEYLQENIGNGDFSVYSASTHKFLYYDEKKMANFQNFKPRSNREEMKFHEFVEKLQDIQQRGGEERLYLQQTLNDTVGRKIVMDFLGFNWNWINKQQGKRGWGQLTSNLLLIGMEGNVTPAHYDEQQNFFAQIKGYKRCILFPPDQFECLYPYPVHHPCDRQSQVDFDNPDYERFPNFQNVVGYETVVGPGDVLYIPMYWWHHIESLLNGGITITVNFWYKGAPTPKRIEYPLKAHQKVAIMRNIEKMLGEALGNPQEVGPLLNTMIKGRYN
T2 sequence (Q9GZT9 181-426): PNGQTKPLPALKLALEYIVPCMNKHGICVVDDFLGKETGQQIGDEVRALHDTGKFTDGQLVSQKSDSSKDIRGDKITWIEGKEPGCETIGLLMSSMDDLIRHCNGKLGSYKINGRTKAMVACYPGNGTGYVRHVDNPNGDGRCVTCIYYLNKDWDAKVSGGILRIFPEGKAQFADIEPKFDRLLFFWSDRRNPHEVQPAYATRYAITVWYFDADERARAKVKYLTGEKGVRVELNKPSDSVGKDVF

As for DESGLPQLTSYDCEVNAPI [CAD HIF-1α19-mer], the “Km^app(O2)” value at FIH [1] is recorded as “no difference”. For the same molecule, at FIH [2], the Rapid quench-flow kproduct was determined as 0.013 ± 0.003 s⁻¹ and the Rapid quench-flow ksuccinate was found to be 0.016 ± 0.004 s⁻¹.
The term Km denotes the concentration of substrate that gives half-maximal velocity. For “NLEVAEYLLEHGADVNAQDK [tnkrs-1_20-mer, 20-mer fragment of tankyrase-1, ARD substrate of FIH]”, at FIH [3], the “Stopped-flow, 500 nm (FIH) kfall phase” value stood at 16.7 ± 0.2 s⁻¹ and the “Stopped-flow, 500 nm (FIH) krise phase” value came out at 0.4 ± 0.2 s⁻¹. Also, on FIH [4] (FIH with the named substrate, 2OG varied, read-out: Km^app(2OG)), the Km was 370 ± 120 µM. Besides, the “kcat^app” value on FIH [4] (FIH, MALDI-TOF-MS or LC-MS) turned out to be 0.8 ± 0.1 s⁻¹. In addition, the Michaelis-Menten constant (Km) at FIH [4] (FIH, substrate varied, 2OG fixed, read-out: Km^app(peptide)) was determined as 78 ± 11 µM. At FIH [2], this molecule had a Rapid quench-flow kproduct of 1.5 ± 0.1 s⁻¹ and a Rapid quench-flow ksuccinate of 1.0 ± 0.3 s⁻¹. At FIH [2] (rapid quench-flow, 5 °C), the “product accumulation rate, fold faster than the reaction with HIF 35-mer substrates” value is listed as around 10 fold.

B1: HIF-1α(344–503) NODD protein: recombinant HIF-1α(344–503) NODD protein, longer PHD2 substrate (protein, UniProt Q16665 344-503, looked up, fragment)
chain: GIIQHDLIFSLQQTECVLKPVESSDMKMTQLFTKVESEDTSSLFDKLKKEPDALTLLAPAAGDTIISLDFGSNDTETDDQQLEEVPLYNDVMLPSPNEKLQNINLAMSPLPTAETPKPLRSSADPALNQEVALKLEPNPESLELSFTMPQIQDQTPSPSD
For B1, in the experiment with PHD2, the “Stopped-flow, 520 nm (PHD2) kfall phase” value is “same kinetics”.
